In patent publication US4508663A, “Process for preparing thiosulfenamide derivatives of N-phosphonomethylglycinonitriles” (Monsanto Company, priority 1983, dated 1985):

Tests used:
Test in all cases: post-emergence herbicidal activity, greenhouse
Assay type in all cases: in vivo
Quackgrass = conditions: Table I, 4 WAT
How it was run: (§1)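 Plants grown from seed or perennial propagules in greenhouse soil pans were sprayed at two to three weeks with compound solution or suspension containing about 0.4% emulsifier, at the stated application rates. Injury relative to untreated controls was scored at approximately two and four weeks after treatment on a post-emergence activity index.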

Canada Thistle = conditions: Table I, 4 WAT
How it was run: as §1

Downy Brome = conditions: 4 WAT
How it was run: as §1

Wild Buckwheat = conditions: Table II, 4 WAT
How it was run: as §1

Sugar Beet = conditions: Table II, 4 WAT
How it was run: as §1

Morningglory = conditions: 4 WAT
How it was run: as §1

Cocklebur = conditions: 4 WAT
How it was run: as §1

Panicum Spp = conditions: Table II, 4 WAT
How it was run: as §1

Rice = conditions: Table II, 4 WAT
How it was run: as §1

Smartweed = conditions: 4 WAT
How it was run: as §1

Sorghum = conditions: Table II, 4 WAT
How it was run: as §1

Velvetleaf = conditions: 4 WAT
How it was run: as §1

Lambsquarters = conditions: 4 WAT
How it was run: as §1

Crabgrass = conditions: Table II, 4 WAT
How it was run: as §1

Wheat = conditions: Table II, 4 WAT
How it was run: as §1

Barnyardgrass = conditions: 4 WAT
How it was run: as §1

Soybean = conditions: Table II, 4 WAT
How it was run: as §1

Yellow Nutsedge = conditions: Table I, 4 WAT
How it was run: as §1

Hemp Sesbania = conditions: Table II, 4 WAT
How it was run: as §1

Johnsongrass = conditions: Table I, 4 WAT
How it was run: as §1

CC(C)CCSSN(CC#N)CP(=O)(Oc1ccccc1)Oc1ccccc1 [V, Phosphonic acid, [[(cyanomethyl)[(3-methylbutyl)-dithio]amino]methyl]-, diphenyl ester]
post-emergence herbicidal activity index (Quackgrass; 5.6 kg/h): 1 (25-49% control)
post-emergence herbicidal activity index (Quackgrass; 11.2 kg/h): 2 (50-74% control)
post-emergence herbicidal activity index (Canada Thistle; 5.6 kg/h): 2 (50-74% control)
post-emergence herbicidal activity index (Canada Thistle; 11.2 kg/h): 1 (25-49% control)
post-emergence herbicidal activity index (Downy Brome; Table I, 5.6 kg/h): 2 (50-74% control)
post-emergence herbicidal activity index (Downy Brome; Table I, 11.2 kg/h): 2 (50-74% control)
post-emergence herbicidal activity index (Downy Brome; Table II, 1.12 kg/h): 2 (50-74% control)
post-emergence herbicidal activity index (Downy Brome; Table II, 5.6 kg/h): 2 (50-74% control)
post-emergence herbicidal activity index (Wild Buckwheat; 1.12 kg/h): 0 (0-24% control)
post-emergence herbicidal activity index (Wild Buckwheat; 5.6 kg/h): 1 (25-49% control)
post-emergence herbicidal activity index (Sugar Beet; 1.12 kg/h): 1 (25-49% control)
post-emergence herbicidal activity index (Sugar Beet; 5.6 kg/h): 1 (25-49% control)
post-emergence herbicidal activity index (Morningglory; Table I, 5.6 kg/h): 2 (50-74% control)
post-emergence herbicidal activity index (Morningglory; Table I, 11.2 kg/h): 2 (50-74% control)
post-emergence herbicidal activity index (Morningglory; Table II, 1.12 kg/h): 1 (25-49% control)
post-emergence herbicidal activity index (Morningglory; Table II, 5.6 kg/h): 2 (50-74% control)
post-emergence herbicidal activity index (Cocklebur; Table I, 5.6 kg/h): 2 (50-74% control)
post-emergence herbicidal activity index (Cocklebur; Table I, 11.2 kg/h): 3 (75-99% control)
post-emergence herbicidal activity index (Cocklebur; Table II, 1.12 kg/h): 1 (25-49% control)
post-emergence herbicidal activity index (Cocklebur; Table II, 5.6 kg/h): 3 (75-99% control)
post-emergence herbicidal activity index (Panicum Spp; 1.12 kg/h): 0 (0-24% control)
post-emergence herbicidal activity index (Panicum Spp; 5.6 kg/h): 1 (25-49% control)
post-emergence herbicidal activity index (Rice; 1.12 kg/h): 0 (0-24% control)
post-emergence herbicidal activity index (Rice; 5.6 kg/h): 1 (25-49% control)
post-emergence herbicidal activity index (Smartweed; Table I, 5.6 kg/h): 1 (25-49% control)
post-emergence herbicidal activity index (Smartweed; Table I, 11.2 kg/h): 3 (75-99% control)
post-emergence herbicidal activity index (Smartweed; Table II, 1.12 kg/h): 0 (0-24% control)
post-emergence herbicidal activity index (Smartweed; Table II, 5.6 kg/h): 1 (25-49% control)
post-emergence herbicidal activity index (Sorghum; 1.12 kg/h): 2 (50-74% control)
post-emergence herbicidal activity index (Sorghum; 5.6 kg/h): 3 (75-99% control)
post-emergence herbicidal activity index (Velvetleaf; Table I, 5.6 kg/h): 1 (25-49% control)
post-emergence herbicidal activity index (Velvetleaf; Table I, 11.2 kg/h): 0 (0-24% control)
post-emergence herbicidal activity index (Velvetleaf; Table II, 1.12 kg/h): 0 (0-24% control)
post-emergence herbicidal activity index (Velvetleaf; Table II, 5.6 kg/h): 2 (50-74% control)
post-emergence herbicidal activity index (Lambsquarters; Table I, 5.6 kg/h): 4 (100% control)
post-emergence herbicidal activity index (Lambsquarters; Table I, 11.2 kg/h): 3 (75-99% control)
post-emergence herbicidal activity index (Lambsquarters; Table II, 1.12 kg/h): 1 (25-49% control)
post-emergence herbicidal activity index (Lambsquarters; Table II, 5.6 kg/h): 3 (75-99% control)
post-emergence herbicidal activity index (Crabgrass; 1.12 kg/h): 1 (25-49% control)
post-emergence herbicidal activity index (Crabgrass; 5.6 kg/h): 3 (75-99% control)
post-emergence herbicidal activity index (Wheat; 1.12 kg/h): 0 (0-24% control)
post-emergence herbicidal activity index (Wheat; 5.6 kg/h): 1 (25-49% control)
post-emergence herbicidal activity index (Barnyardgrass; Table I, 5.6 kg/h): 2 (50-74% control)
post-emergence herbicidal activity index (Barnyardgrass; Table I, 11.2 kg/h): 3 (75-99% control)
post-emergence herbicidal activity index (Barnyardgrass; Table II, 1.12 kg/h): 1 (25-49% control)
post-emergence herbicidal activity index (Barnyardgrass; Table II, 5.6 kg/h): 3 (75-99% control)
post-emergence herbicidal activity index (Soybean; 1.12 kg/h): 1 (25-49% control)
post-emergence herbicidal activity index (Soybean; 5.6 kg/h): 2 (50-74% control)
post-emergence herbicidal activity index (Yellow Nutsedge; 5.6 kg/h): 2 (50-74% control)
post-emergence herbicidal activity index (Yellow Nutsedge; 11.2 kg/h): 2 (50-74% control)
post-emergence herbicidal activity index (Hemp Sesbania; 1.12 kg/h): 0 (0-24% control)
post-emergence herbicidal activity index (Hemp Sesbania; 5.6 kg/h): 1 (25-49% control)
post-emergence herbicidal activity index (Johnsongrass; 5.6 kg/h): 1 (25-49% control)
post-emergence herbicidal activity index (Johnsongrass; 11.2 kg/h): 3 (75-99% control)
